What follows are compounds tested against human IR(B) (Homo sapiens, UniProt P06213) (assay: Insulin receptor phosphorylation assay (MSD pIR)). Conditions: Method A: IR phosphorylation assay, 96-well; CHO cells expressing human IR(B); IP = inflection point; read-out: IR Activation IP.
Assay type: cell-based
Method: CHO cells stably expressing human IR(B) were in grown in F12 cell media containing 10% FBS and antibiotics (G418, Penicillin/Strepavidin) for at least 8 hr, and then serum starved by switching to F12 media containing 0.5% BSA (insulin-free) in place of FBS for overnight growth. Cells were harvested and frozen in aliquots for use in the MSD pIR assay. Briefly, the frozen cells were plated in either 96-well (40,000 cells/well, Methods A) or 384-well (10,000 cells/well, Method B) clear tissue culture plates and allowed to recover. IOC molecules at the appropriate concentrations were added and the cells incubated for 8 min at 37° C. The media was aspirated and chilled MSD cell lysis buffer was added as per MSD kit instructions. The cells were lysed on ice for 40 min and the lysate then mixed for 10 min at rt. The lysate was transferred to the MSD kit pIR detection plates. The remainder of the assay was carried out following the MSD kit recommended protocol.
The in vitro biological activities towards insulin receptor (IR) were measured by either ligand competition assays or functional phosphorylation assays, as described above, labeled as following: Method A: IR phosphorylation assay based on 96-well; Method B: IR phosphorylation assay based on 384-well with automated liquid dispense; Method C: cell-based IR binding assay; Method D: SPA IR binding assay method E; Method E: MRC1 assay was performed in a 96-well plate; Method F: MRC1 assay was performed in a 384-well plate.

Chain of human IR(B) (P06213 28-758 limits assumed): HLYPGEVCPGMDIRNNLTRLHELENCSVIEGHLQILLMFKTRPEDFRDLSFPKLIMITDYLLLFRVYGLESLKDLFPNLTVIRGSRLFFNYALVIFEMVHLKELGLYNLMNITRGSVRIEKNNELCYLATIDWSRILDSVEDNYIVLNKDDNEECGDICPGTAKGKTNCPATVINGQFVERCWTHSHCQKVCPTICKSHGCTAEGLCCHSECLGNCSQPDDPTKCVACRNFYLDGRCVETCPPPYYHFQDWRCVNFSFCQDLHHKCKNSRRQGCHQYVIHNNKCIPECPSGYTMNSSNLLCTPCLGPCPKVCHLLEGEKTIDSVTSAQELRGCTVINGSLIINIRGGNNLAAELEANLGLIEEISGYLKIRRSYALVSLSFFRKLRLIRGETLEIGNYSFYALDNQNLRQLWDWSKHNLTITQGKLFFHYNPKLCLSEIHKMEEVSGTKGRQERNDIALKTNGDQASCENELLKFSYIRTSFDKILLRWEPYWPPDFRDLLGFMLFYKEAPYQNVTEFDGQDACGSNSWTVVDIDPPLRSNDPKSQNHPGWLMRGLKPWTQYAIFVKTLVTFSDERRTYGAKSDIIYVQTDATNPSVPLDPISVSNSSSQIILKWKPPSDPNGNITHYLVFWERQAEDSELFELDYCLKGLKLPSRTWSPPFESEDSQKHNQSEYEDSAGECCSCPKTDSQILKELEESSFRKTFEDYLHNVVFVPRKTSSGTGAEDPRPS
Chain of human IR(B) (P06213 763-1382 partner limits assumed): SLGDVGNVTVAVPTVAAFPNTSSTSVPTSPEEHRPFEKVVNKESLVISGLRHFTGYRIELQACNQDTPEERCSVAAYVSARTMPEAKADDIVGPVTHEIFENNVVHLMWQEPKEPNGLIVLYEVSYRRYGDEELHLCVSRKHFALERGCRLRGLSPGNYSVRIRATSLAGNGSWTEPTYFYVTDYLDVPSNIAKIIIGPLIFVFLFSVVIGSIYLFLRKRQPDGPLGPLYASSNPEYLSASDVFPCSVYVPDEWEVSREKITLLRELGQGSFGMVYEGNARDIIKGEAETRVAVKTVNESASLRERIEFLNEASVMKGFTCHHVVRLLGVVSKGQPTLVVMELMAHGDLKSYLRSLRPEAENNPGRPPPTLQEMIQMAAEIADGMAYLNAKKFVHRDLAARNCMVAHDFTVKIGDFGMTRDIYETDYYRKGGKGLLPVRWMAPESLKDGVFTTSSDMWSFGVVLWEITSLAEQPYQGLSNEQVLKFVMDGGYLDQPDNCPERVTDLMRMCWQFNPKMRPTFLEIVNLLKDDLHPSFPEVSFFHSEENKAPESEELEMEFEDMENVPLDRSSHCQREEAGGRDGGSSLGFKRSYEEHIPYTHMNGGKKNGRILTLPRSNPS

Compound | EC50
CC(=O)[C@H](CCCCN)NC(=O)CCCCC(=O)N[C@@H](CCC(=O)NCCO[C@@H]1O[C@@H](C)[C@@H](O)[C@@H](O)[C@@H]1O)C(=O)N[C@@H](CCC(=O)NCCO[C@@H]1O[C@@H](C)[C@@H](O)[C@@H](O)[C@@H]1O)C(=O)N[C@@H](CCC(=O)NCCO[C@@H]1O[C@@H](C)[C@@H](O)[C@@H](O)[C@@H]1O)C(=O)NCCO[C@@H]1O[C@@H](C)[C@@H](O)[C@@H](O)[C@@H]1O [IOC-19] | 0.81 nM
CC(=O)[C@H](CCCCN)NC(=O)[C@H](CCCCNC(=O)CCCCC(=O)N(CCOC1O[C@H](CO)[C@@H](O)[C@H](O)[C@@H]1O)CCOC1O[C@H](CO)[C@@H](O)[C@H](O)[C@@H]1O)NC(=O)[C@H](CCCNC(=O)CCCCC(=O)N(CCOC1O[C@H](CO)[C@@H](O)[C@H](O)[C@@H]1O)CCOC1O[C@H](CO)[C@@H](O)[C@H](O)[C@@H]1O)NC(=O)CCCCC(=O)N(CCOC1O[C@H](CO)[C@@H](O)[C@H](O)[C@@H]1O)CCOC1O[C@H](CO)[C@@H](O)[C@H](O)[C@@H]1O (some centres unmarked) [IOC-44] | 8.4 nM

These compounds were tested against T1, Human macrophage mannose receptor 1 (MRC1) (Homo sapiens, UniProt P22897) (assay: MRC1 competition binding assay with Eu-mannosylated-BSA). Conditions: Method E: 96-well plate; IP = inflection point; read-out: MRC1 Binding IP.
T1 sequence (P22897 19-1456): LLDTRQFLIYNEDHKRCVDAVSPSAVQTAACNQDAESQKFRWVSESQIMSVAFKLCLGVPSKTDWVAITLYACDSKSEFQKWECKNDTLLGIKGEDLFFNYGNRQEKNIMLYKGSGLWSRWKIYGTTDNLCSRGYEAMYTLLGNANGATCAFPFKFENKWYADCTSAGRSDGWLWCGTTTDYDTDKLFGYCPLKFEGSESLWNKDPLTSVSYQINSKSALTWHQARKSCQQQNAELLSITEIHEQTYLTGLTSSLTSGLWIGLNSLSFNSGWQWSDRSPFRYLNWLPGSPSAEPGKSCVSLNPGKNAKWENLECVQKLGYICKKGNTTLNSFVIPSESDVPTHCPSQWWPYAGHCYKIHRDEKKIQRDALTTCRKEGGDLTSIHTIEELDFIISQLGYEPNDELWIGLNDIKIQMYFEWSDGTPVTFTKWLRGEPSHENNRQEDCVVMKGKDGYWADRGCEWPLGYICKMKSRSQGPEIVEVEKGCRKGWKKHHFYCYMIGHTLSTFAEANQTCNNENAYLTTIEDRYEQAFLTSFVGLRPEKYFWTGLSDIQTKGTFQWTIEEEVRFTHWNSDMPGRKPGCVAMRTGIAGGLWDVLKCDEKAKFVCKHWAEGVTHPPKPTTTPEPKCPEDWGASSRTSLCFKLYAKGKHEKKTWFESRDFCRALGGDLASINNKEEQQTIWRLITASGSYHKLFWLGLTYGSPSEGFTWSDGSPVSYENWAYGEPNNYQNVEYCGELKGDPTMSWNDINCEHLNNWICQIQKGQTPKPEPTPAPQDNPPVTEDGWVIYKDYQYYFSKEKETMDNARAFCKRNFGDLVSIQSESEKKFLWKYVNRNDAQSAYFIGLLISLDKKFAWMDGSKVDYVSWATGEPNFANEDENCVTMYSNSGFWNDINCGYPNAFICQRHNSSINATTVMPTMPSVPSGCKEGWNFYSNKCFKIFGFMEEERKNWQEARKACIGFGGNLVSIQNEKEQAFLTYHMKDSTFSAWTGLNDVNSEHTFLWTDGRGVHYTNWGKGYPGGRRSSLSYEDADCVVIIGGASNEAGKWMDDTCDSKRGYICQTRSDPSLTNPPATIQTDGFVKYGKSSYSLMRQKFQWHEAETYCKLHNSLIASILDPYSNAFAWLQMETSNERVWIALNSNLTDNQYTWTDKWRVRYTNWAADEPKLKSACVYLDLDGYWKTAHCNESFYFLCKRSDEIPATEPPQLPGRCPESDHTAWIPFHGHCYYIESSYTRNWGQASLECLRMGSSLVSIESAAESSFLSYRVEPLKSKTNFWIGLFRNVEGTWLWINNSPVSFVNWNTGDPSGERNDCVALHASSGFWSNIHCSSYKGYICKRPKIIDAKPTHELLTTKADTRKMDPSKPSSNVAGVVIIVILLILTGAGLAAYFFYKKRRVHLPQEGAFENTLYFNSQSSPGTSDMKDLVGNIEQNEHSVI
Method: The competition binding assay for Human macrophage mannose receptor 1 (MRC1) utilized a ligand, mannosylated-BSA labeled with the DELFIA Eu-N1-ITC reagent, as reported in the literature. Assay was performed either in a 96-well plate with 100 μL well volume (Method E) or in a 384-well plate with 25 μL well volume (Method F). […] The antibody was incubated in the plate for 1 hr at rt with shaking. The plate was washed with wash buffer 3-5 times followed by addition of MRC1 (2 ng/μl final concentration) in PBS containing 1% stabilizer BSA. The plate was incubated at rt with gentle shaking for 1 hr. The plate was washed three times with wash buffer. The IOC molecules in 12.5 μL (or 50 μL depending on plate format) buffer at appropriate concentrations were added followed by 12.5 μL (or 50 μL) Eu-mannosylated-BSA (0.1 nm final concentration) in 50 mM Tris, pH 7.5 containing 100 mM NaCl, 5 mM CaCl2, 1 mM MgCl2 and 0.2% stabilizer BSA. The plate was incubated for 2 hrs at rt with shaking followed by washing three times with wash buffer.

Compound | IC50
CC(=O)[C@H](CCCCN)NC(=O)CCCCC(=O)N[C@@H](CCC(=O)NCCO[C@@H]1O[C@@H](C)[C@@H](O)[C@@H](O)[C@@H]1O)C(=O)N[C@@H](CCC(=O)NCCO[C@@H]1O[C@@H](C)[C@@H](O)[C@@H](O)[C@@H]1O)C(=O)N[C@@H](CCC(=O)NCCO[C@@H]1O[C@@H](C)[C@@H](O)[C@@H](O)[C@@H]1O)C(=O)NCCO[C@@H]1O[C@@H](C)[C@@H](O)[C@@H](O)[C@@H]1O [IOC-19] | 16 nM
CC(=O)[C@H](CCCCN)NC(=O)[C@H](CCCCNC(=O)CCCCC(=O)N(CCOC1O[C@H](CO)[C@@H](O)[C@H](O)[C@@H]1O)CCOC1O[C@H](CO)[C@@H](O)[C@H](O)[C@@H]1O)NC(=O)[C@H](CCCNC(=O)CCCCC(=O)N(CCOC1O[C@H](CO)[C@@H](O)[C@H](O)[C@@H]1O)CCOC1O[C@H](CO)[C@@H](O)[C@H](O)[C@@H]1O)NC(=O)CCCCC(=O)N(CCOC1O[C@H](CO)[C@@H](O)[C@H](O)[C@@H]1O)CCOC1O[C@H](CO)[C@@H](O)[C@H](O)[C@@H]1O (some centres unmarked) [IOC-44] | 31.3 nM
CC(=O)[C@H](CCCCN)NC(=O)CCCCC(=O)N[C@@H](CCC(=O)N[C@@H](CCC(=O)NCCO[C@@H]1O[C@@H](C)[C@@H](O)[C@@H](O)[C@@H]1O)C(=O)NCCO[C@@H]1O[C@@H](C)[C@@H](O)[C@@H](O)[C@@H]1O)C(=O)NCCO[C@H]1O[C@H](CO[C@H]2O[C@H](CO)[C@@H](O)[C@H](O)[C@@H]2O)[C@@H](O)[C@H](O[C@H]2O[C@H](CO)[C@@H](O)[C@H](O)[C@@H]2O)[C@@H]1O [IOC-3] | 42.2 nM
CC(=O)[C@H](CCCCN)NC(=O)CCCCC(=O)N[C@@H](CCC(=O)NCCO[C@H]1O[C@H](CO[C@H]2O[C@H](CO)[C@@H](O)[C@H](O)[C@@H]2O)[C@@H](O)[C@H](O[C@H]2O[C@H](CO)[C@@H](O)[C@H](O)[C@@H]2O)[C@@H]1O)C(=O)N[C@@H](CCC(=O)NCCO[C@H]1O[C@H](CO[C@H]2O[C@H](CO)[C@@H](O)[C@H](O)[C@@H]2O)[C@@H](O)[C@H](O[C@H]2O[C@H](CO)[C@@H](O)[C@H](O)[C@@H]2O)[C@@H]1O)C(=O)N[C@@H](CC(C)C)C(=O)NCCO[C@H]1O[C@H](CO[C@H]2O[C@H](CO)[C@@H](O)[C@H](O)[C@@H]2O)[C@@H](O)[C@H](O[C@H]2O[C@H](CO)[C@@H](O)[C@H](O)[C@@H]2O)[C@@H]1O [IOC-4] | 7.56 nM
CC(=O)[C@H](CCCCN)NC(=O)CCCCCNC(=O)[C@H](CCCCNC(=O)CCCCC(=O)NCCO[C@H]1O[C@H](CO[C@H]2O[C@H](CO)[C@@H](O)[C@H](O)[C@@H]2O)[C@@H](O)[C@H](O[C@H]2O[C@H](CO)[C@@H](O)[C@H](O)[C@@H]2O)[C@@H]1O)NC(=O)[C@H](CCCCNC(=O)CCCCC(=O)NCCO[C@H]1O[C@H](CO[C@H]2O[C@H](CO)[C@@H](O)[C@H](O)[C@@H]2O)[C@@H](O)[C@H](O[C@H]2O[C@H](CO)[C@@H](O)[C@H](O)[C@@H]2O)[C@@H]1O)NC(=O)CCCCC(=O)NCCO[C@H]1O[C@H](CO[C@H]2O[C@H](CO)[C@@H](O)[C@H](O)[C@@H]2O)[C@@H](O)[C@H](O[C@H]2O[C@H](CO)[C@@H](O)[C@H](O)[C@@H]2O)[C@@H]1O [IOC-7] | 7.17 nM
CC(=O)[C@H](CCCCN)NC(=O)CCCCC(=O)N[C@@H](CCC(=O)NCCCCCC(=O)N(CCOC1O[C@H](CO)[C@@H](O)[C@H](O)[C@@H]1O)CCOC1O[C@H](CO)[C@@H](O)[C@H](O)[C@@H]1O)C(=O)N[C@@H](CCC(=O)NCCCCCC(=O)N(CCOC1O[C@H](CO)[C@@H](O)[C@H](O)[C@@H]1O)CCO[C@H]1O[C@H](CO)[C@@H](O)[C@H](O)[C@@H]1O)C(=O)N[C@@H](CC(C)C)C(=O)NCCCCCC(=O)N(CCOC1O[C@H](CO)[C@@H](O)[C@H](O)[C@@H]1O)CCOC1O[C@H](CO)[C@@H](O)[C@H](O)[C@@H]1O (some centres unmarked) [IOC-49] | 54.5 nM

Same assay, conditions: Method F: 384-well plate; IP = inflection point; read-out: MRC1 Binding IP

Compound | IC50
CC(=O)[C@H](CCCCN)NC(=O)CCCCC(=O)NCC(=O)N[C@@H](CCC(=O)N[C@@H](CCC(=O)NCCCCCC(=O)N(CCOC1O[C@H](CO)[C@@H](O)[C@H](O)[C@@H]1O)CCOC1O[C@H](CO)[C@@H](O)[C@H](O)[C@@H]1O)C(=O)NCCCCCC(=O)N(CCOC1O[C@H](CO)[C@@H](O)[C@H](O)[C@@H]1O)CCOC1O[C@H](CO)[C@@H](O)[C@H](O)[C@@H]1O)C(=O)NCCCCCC(=O)NCCO[C@@H]1O[C@H](CO[C@H]2O[C@H](CO)[C@@H](O)[C@H](O)[C@@H]2O)[C@@H](O)[C@H](O[C@H]2O[C@H](CO)[C@@H](O)[C@H](O)[C@@H]2O)[C@@H]1O (some centres unmarked) [IOC-28] | 10.9 nM
CC(=O)[C@H](CCCCN)NC(=O)CCCCC(=O)N[C@@H](CCC(=O)N[C@@H](CCC(=O)N[C@@H](CCC(=O)N[C@@H](CCC(=O)N[C@@H](CCC(=O)NCCO[C@@H]1O[C@@H](C)[C@@H](O)[C@@H](O)[C@@H]1O)C(=O)NCCO[C@@H]1O[C@@H](C)[C@@H](O)[C@@H](O)[C@@H]1O)C(=O)NCCO[C@@H]1O[C@@H](C)[C@@H](O)[C@@H](O)[C@@H]1O)C(=O)NCCO[C@@H]1O[C@@H](C)[C@@H](O)[C@@H](O)[C@@H]1O)C(=O)NCCO[C@@H]1O[C@@H](C)[C@@H](O)[C@@H](O)[C@@H]1O)C(=O)NCCO[C@@H]1O[C@@H](C)[C@@H](O)[C@@H](O)[C@@H]1O [IOC-54] | 8.91 nM
CC(=O)[C@H](CCCCN)NC(=O)CCCCC(=O)NCC(=O)N[C@@H](CCC(=O)N[C@@H](CCC(=O)NCCCCCC(=O)N(CCOC1O[C@H](CO)[C@@H](O)[C@H](O)[C@@H]1O)CCO[C@H]1O[C@H](CO)[C@@H](O)[C@H](O)[C@@H]1O)C(=O)NCCCCCC(=O)N(CCOC1O[C@H](CO)[C@@H](O)[C@H](O)[C@@H]1O)CCOC1O[C@H](CO)[C@@H](O)[C@H](O)[C@@H]1O)C(=O)NCCCCCC(=O)N(CC(=O)NCCO[C@@H]1O[C@@H](C)[C@@H](O)[C@@H](O)[C@@H]1O)CC(=O)NCCO[C@@H]1O[C@@H](C)[C@@H](O)[C@@H](O)[C@@H]1O (some centres unmarked) [IOC-51] | 28.8 nM
CC(=O)[C@H](CCCCN)NC(=O)CCCCCNC(=O)[C@H](CCCCNC(=O)CCOCCOCCNC(=O)CN(CC(=O)NCCO[C@@H]1O[C@@H](C)[C@@H](O)[C@@H](O)[C@@H]1O)CC(=O)NCCO[C@@H]1O[C@@H](C)[C@@H](O)[C@@H](O)[C@@H]1O)NC(=O)[C@H](CCCCNC(=O)CCOCCOCCNC(=O)CN(CC(=O)NCCO[C@@H]1O[C@@H](C)[C@@H](O)[C@@H](O)[C@@H]1O)CC(=O)NCCO[C@@H]1O[C@@H](C)[C@@H](O)[C@@H](O)[C@@H]1O)NC(=O)CCOCCOCCNC(=O)CN(CC(=O)NCCO[C@@H]1O[C@@H](C)[C@@H](O)[C@@H](O)[C@@H]1O)CC(=O)NCCO[C@@H]1O[C@@H](C)[C@@H](O)[C@@H](O)[C@@H]1O [IOC-43] | 8.25 nM
CC(=O)[C@H](CCCCN)NC(=O)CCCCCNC(=O)[C@H](CCCCNC(=O)[C@H](CCCCNC(=O)CCCCCNC(=O)CN(CC(=O)NCCO[C@H]1O[C@H](CO)[C@@H](O)[C@H](O)[C@@H]1O)CC(=O)NCCO[C@H]1O[C@H](CO)[C@@H](O)[C@H](O)[C@@H]1O)NC(=O)CN(CC(=O)NCCO[C@H]1O[C@H](CO)[C@@H](O)[C@H](O)[C@@H]1O)CC(=O)NCCO[C@H]1O[C@H](CO)[C@@H](O)[C@H](O)[C@@H]1O)NC(=O)CN(CC(=O)NCCO[C@@H]1O[C@@H](C)[C@@H](O)[C@@H](O)[C@@H]1O)CC(=O)NCCO[C@@H]1O[C@@H](C)[C@@H](O)[C@@H](O)[C@@H]1O [IOC-46] | 58.3 nM
CC(=O)[C@H](CCCCN)NC(=O)CCCCC(=O)NCC(=O)N[C@@H](CCC(=O)N[C@@H](CCC(=O)NCCCCCC(=O)N(CCOC1O[C@H](CO)[C@@H](O)[C@H](O)[C@@H]1O)CCO[C@H]1O[C@H](CO)[C@@H](O)[C@H](O)[C@@H]1O)C(=O)NCCCCCC(=O)N(CCOC1O[C@H](CO)[C@@H](O)[C@H](O)[C@@H]1O)CCOC1O[C@H](CO)[C@@H](O)[C@H](O)[C@@H]1O)C(=O)NCCCCCC(=O)NCCO[C@H]1O[C@H](CO[C@H]2O[C@H](CO)[C@@H](O)[C@H](O)[C@@H]2O)[C@@H](O)[C@H](O[C@H]2O[C@H](CO)[C@@H](O)[C@H](O)[C@@H]2O)[C@@H]1O (some centres unmarked) [IOC-33] | 10 nM
